Experimental data from patent US8188128B2, “Opioid receptor subtype-selective agents” (The University of Medicine and Dentistry of New Jersey, priority 2005, dated 2012).
Like-named read-outs stand apart in the source and are kept apart here.

Columns and labels:
[1] = biological target: T1, delta receptor (Mus musculus, UniProt P32300); assay: Opioid receptor binding assay, δ, [3H]DPDPE, HEK 293 cell membranes; design: species or system rat; details: for IC50: compounds of Formula II, Table III; for Selectivity κ/δ / Selectivity μ/δ: ratio of IC50 values
T1 construct: expressed in transfected cells
Procedure: (§1) Receptor binding assay: Cell membrane preparations were obtained from HEK 293-stable transfectants expressing either the murine δ or μ or the human κ receptor. Opioid receptor binding assays were conducted in duplicate on membrane preparations that had been resuspended in 50 mM Tris-HCl, pH 7.5, utilizing [^3H]DPDPE, [^3H]DAMGO and [^3H]U69593 as radiologand for δ, μ, and κ respectively and 10 μM cyclazocine to define non-specific binding. Following a 1 hour incubation on ice, binding assays were terminated by filtration through Whatman GF/B filters. Filters were soaked in Ecoscint liquid scintillation solution (National Diagnostics, Manville, N.J.) and filter-bound radioactivity was measured using a Packard Tri-Carb 2100 TR liquid scintillation analyzer. Receptor binding data was analyzed by non-linear regression of saturation and competition curves using Prisim 3.0 software (GraphPad Software, San Diego, Calif.). Protein concentrations were determined with the Bio-Rad protein using bovine serum albumin as the standard.

[2] = biological target: T2, mu receptor (Mus musculus, UniProt P42866); assay: Opioid receptor binding assay, μ, [3H]DAMGO, HEK 293 cell membranes; design: species or system rat; details: compounds of Formula II, Table III
T2 construct: expressed in transfected cells
Procedure: as §1, with “Opioid” for “Receptor binding assay: Cell membrane preparations were obtained from HEK 293-stable transfectants expressing either the murine δ or μ or the human κ receptor. Opioid”

[3] = biological target: T3, human kappa receptor (Homo sapiens, UniProt P41145); assay: Opioid receptor binding assay, κ, [3H]U69593, HEK 293 cell membranes
T3 construct: expressed in transfected cells
Procedure: as §1

[4] = biological target: T4, δ-receptor (Mus musculus, UniProt P32300); assay: Function at δ receptor (receptor down regulation assay, HEK 293 cells expressing FLAG-tagged δ-receptor); format: cell-based; design: FLAG; expressed in transfected cells; host or cells: HEK 293 (G418 selection); details: for Function at δ: compounds of Formula I
Procedure: Receptor down regulation assays: HEK 293 cells expressing the FLAG-tagged δ-receptor were grown to near confluence in 100 mm dishes in DMEM media supplemented with 10% fetal calf serum and 0.25 mg/ml G418. Media was replaced with serum-free media prior to overnight incubation with 10 μM or 20 μM of DOP or control compound. Media was aspirated and cell washed twice with cold PBS. Cell homogenates were collected and further washed trice with 50 mM TRIS-HCl, pH 7.5. Protein concentration was measured using Bio-Rad Bradford reagent and equal amount of protein (50 μg) was used for binding assay. Binding assays were performed using [^3H]diprenorphine as the radioactive ligand. Binding assays were conducted as described above.

[5] = biological target: T4, δ-receptor; details: literature values for comparison compounds; cited from earlier work
[6] = biological target: T5, kappa opioid receptor (Homo sapiens, UniProt P41145); assay: Function at the kappa opioid receptor; details: Table III
T5 construct: expressed in transfected cells

[7] = biological target: T6, mu opioid receptor (Mus musculus, UniProt P42866); assay: Function at the mu opioid receptor; details: Table III
T6 construct: expressed in transfected cells

[8] = compounds of Formula II, Table III, read-out: IC50 κ
[9] = inhibition of [3H]U69593, HEK 293 cell membrane, compounds of Formula I, read-out: IC50 (nM) κ

T3 sequence (P41145 whole entry): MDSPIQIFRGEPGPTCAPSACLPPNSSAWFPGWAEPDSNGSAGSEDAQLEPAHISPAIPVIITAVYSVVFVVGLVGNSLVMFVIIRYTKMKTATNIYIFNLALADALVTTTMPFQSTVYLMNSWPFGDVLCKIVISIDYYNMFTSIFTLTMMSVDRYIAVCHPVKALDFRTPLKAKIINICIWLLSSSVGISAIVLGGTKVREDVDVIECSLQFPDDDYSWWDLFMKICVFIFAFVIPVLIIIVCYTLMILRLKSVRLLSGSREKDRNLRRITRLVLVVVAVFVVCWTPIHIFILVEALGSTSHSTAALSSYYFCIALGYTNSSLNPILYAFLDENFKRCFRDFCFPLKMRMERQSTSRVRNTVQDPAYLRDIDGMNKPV
T4 sequence (P32300 whole entry): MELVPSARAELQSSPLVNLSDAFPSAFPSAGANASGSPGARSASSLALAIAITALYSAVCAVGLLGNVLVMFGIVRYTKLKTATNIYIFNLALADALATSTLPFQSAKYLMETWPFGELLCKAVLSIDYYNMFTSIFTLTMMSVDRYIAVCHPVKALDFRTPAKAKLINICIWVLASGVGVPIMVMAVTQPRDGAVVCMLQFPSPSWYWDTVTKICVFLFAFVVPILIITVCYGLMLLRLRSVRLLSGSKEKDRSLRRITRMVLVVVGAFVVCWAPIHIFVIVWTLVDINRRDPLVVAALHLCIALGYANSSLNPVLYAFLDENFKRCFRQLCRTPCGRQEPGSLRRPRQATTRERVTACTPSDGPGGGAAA
T1 sequence (P32300 whole entry): as above
T2 sequence (P42866 whole entry): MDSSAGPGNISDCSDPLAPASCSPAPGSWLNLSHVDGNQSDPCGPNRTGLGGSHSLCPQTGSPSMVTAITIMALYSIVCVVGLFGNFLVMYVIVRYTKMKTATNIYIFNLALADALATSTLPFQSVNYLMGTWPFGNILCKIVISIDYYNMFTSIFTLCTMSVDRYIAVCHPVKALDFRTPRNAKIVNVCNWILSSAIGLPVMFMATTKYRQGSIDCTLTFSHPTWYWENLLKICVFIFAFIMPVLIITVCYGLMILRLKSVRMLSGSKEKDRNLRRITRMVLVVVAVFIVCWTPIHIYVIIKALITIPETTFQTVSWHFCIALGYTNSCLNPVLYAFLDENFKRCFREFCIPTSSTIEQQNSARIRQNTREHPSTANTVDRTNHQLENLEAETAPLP
T5 sequence (P41145 whole entry): as the sequence (P41145 whole entry) above
T6 sequence (P42866 whole entry): as the sequence (P42866 whole entry) above

| IC50 [1] | IC50 [2] | IC50 [3, 8] | IC50 [3, 9] | Function at δ [4] | SMILES | Selectivity κ/δ [1] | Selectivity μ/δ [1] | other results |
| --- | --- | --- | --- | --- | --- | --- | --- | --- |
| 2780 nM | 991 nM | 2130 nM |  |  | CN(C)c1nnc(-c2cccc(O)c2)n1-c1ccc(C(C)(C)C)cc1 [DST8S] |  |  |  |
|  |  |  | 3850 ± 311 nM | Agonist | CN(C)Cc1nc(-c2ccc(C(C)(C)C)cc2)n(-c2cccc(O)c2)n1 [DOP108, 3-[5-(4-tert-Butyl-phenyl)-3-dimethylaminomethyl-[1,2,4,]triazole-1-yl]-phenol] |  |  |  |
|  |  |  | 341 ± 20 nM | Agonist | CN(C)Cc1nc(-c2cccc(C(C)(C)C)c2)n(-c2cccc(O)c2)n1 [DOP106, 3-[5-(3-tert-Butyl-phenyl)-3-dimethylaminomethyl-[1,2,4,]triazole-1-yl]-phenol] | 7 | 50 |  |
|  |  |  |  |  | C=CCN1C[C@H](C)N([C@H](c2ccc(C(=O)N(CC)CC)cc2)c2cccc(OC)c2)C[C@H]1C [SNC80] |  |  | Function at δ [5]: Agonist |
| 114 nM | 118 nM | 23 nM |  |  | CN(C)c1nnc(-c2cccc(O)c2)n1-c1cccc(C(C)(C)C)c1 [DST10S] |  |  | Function at the kappa opioid receptor [6]: particularly strong agonist; Function at the mu opioid receptor [7]: moderate to strong antagonist; Function at the delta opioid receptor ([4]; compound of Formula II, Table III): moderate to strong antagonist |

| SMILES | IC50 [1] | IC50 [2] | IC50 [3, 8] | IC50 [3, 9] | Function at δ [4] | Selectivity κ/δ [1] | Selectivity μ/δ [1] | other results |
| --- | --- | --- | --- | --- | --- | --- | --- | --- |
| Cc1ccc(-c2nc(CN(C)C)nn2-c2cccc(O)c2)c(C)c1 [DOP110] |  |  |  | 351 ± 95 nM | Agonist | 1.3 | 8.9 |  |
